The record followed here is patent US7214673B2, “Piperazine substituted aryl benzodiazepines and their use as dopamine receptor antagonists for the treatment of psychotic disorders” (Eli Lilly and Company, priority 2002, dated 2007).

The structures appear in SMILES notation. Structures can show the parent of a compound that is named as a salt.

In general, melting point refers to the temperature, or range, at which the solid turns liquid. As usually defined, the Ki is the dissociation constant of the complex between target and ligand, obtained from inhibition or displacement.

Test system in the first series: not given
Assay: not given
Conditions: not given
`Cc1cc2c(s1)Nc1ccccc1N=C2N1CCN(C)[C@@H](CCc2ccc(Cl)cc2)C1` [Example 390, 10-((S)-3-[2-(4-Chloro-phenyl)-ethyl]-4-methyl-piperazin-1-yl)-2-methyl-4H-3-thia-4,9-diaza-benzo[f]azulene]: the melting point is 79 °C (dec.).
As to `Cc1cc2c(s1)Nc1ccccc1N=C2N1CCN(C)[C@@H](CCc2cccc(Cl)c2)C1` [Example 391, 10-((S)-3-[2-(3-Chloro-phenyl)-ethyl]-4-methyl-piperazin-1-yl)-2-methyl-4H-3-thia-4,9-diaza-benzo[f]azulene], the melting point is 69 °C (dec.).
Take `Cc1cc2c(s1)Nc1ccccc1N=C2N1CCN(C)[C@@H](CCc2ccccc2Cl)C1` [Example 392, 10-((S)-3-[2-(2-Chloro-phenyl)-ethyl]-4-methyl-piperazin-1-yl)-2-methyl-4H-3-thia-4,9-diaza-benzo[f]azulene]: the melting point is 72 °C (dec.).
Still for that read-out and setting: under `Cc1cc2c(s1)Nc1ccccc1N=C2N1CCN[C@@H](CCc2ccc(C(F)(F)F)cc2)C1` [Example 393, 10-((S)-3-[2-(4-Trifluoromethyl-phenyl)-ethyl]-piperazin-1-yl)-2-methyl-4H-3-thia-4,9-diaza-benzo[f]azulene] stands 78 °C (dec.); under `Cc1cc2c(s1)Nc1ccccc1N=C2N1CCN[C@@H](CCc2ccccc2C(F)(F)F)C1` [Example 394, 10-((S)-3-[2-(2-Trifluoromethyl-phenyl)-ethyl]-piperazin-1-yl)-2-methyl-4H-3-thia-4,9-diaza-benzo[f]azulene], 73 °C (dec.); under `Cc1cc2c(s1)Nc1ccccc1N=C2N1CCN[C@@H](CCc2cccc(C(F)(F)F)c2)C1` [Example 395, 10-((S)-3-[2-(3-Trifluoromethyl-phenyl)-ethyl]-piperazin-1-yl)-2-methyl-4H-3-thia-4,9-diaza-benzo[f]azulene], 69 °C (dec.).
Consider `Cc1cc2c(s1)Nc1ccccc1N=C2N1CCN(C)[C@@H](CCc2ccc(C(F)(F)F)cc2)C1` [Example 396, 10-((S)-3-[2-(4-Trifluoromethyl-phenyl)-ethyl]-4-methyl-piperazin-1-yl)-2-methyl-4H-3-thia-4,9-diaza-benzo[f]azulene], for which the melting point is 72 °C (dec.).
The same measure, in the same setting: under `Cc1cc2c(s1)Nc1ccccc1N=C2N1CCN(C)[C@@H](CCc2ccccc2C(F)(F)F)C1` [Example 397, 10-((S)-3-[2-(2-Trifluoromethyl-phenyl)-ethyl]-4-methyl-piperazin-1-yl)-2-methyl-4H-3-thia-4,9-diaza-benzo[f]azulene] stands 68 °C (dec.).
Same read-out and setting: under `Cc1cc2c(s1)Nc1ccccc1N=C2N1CCN[C@@H](CCc2ccc(F)cc2F)C1` [Example 399, 10-((S)-3-[2-(2,4-Difluoro-phenyl)-ethyl]-piperazin-1-yl)-2-methyl-4H-3-thia-4,9-diaza-benzo[f]azulene] stands 69 °C (dec.); under `CC(C)(C)c1cc2c(s1)Nc1ccccc1N=C2N1CCN[C@@H](CCc2ccccc2)C1` [Example 445, (S)-2-tert-Butyl-10-(3-phenethyl-piperazin-1-yl)-4H-3-thia-4,9-diaza-benzo[f]azulene], 93 to 96 °C.
In the case of `Cc1nc2c(s1)Nc1ccccc1N=C2N1CCN[C@@H](Cc2ccccc2)C1` [Example 462], the melting point was 250 to 252 °C.
The same measure, in the same setting: under `Cc1ccc2c(c1)Nc1ccccc1N=C2N1CCN(C)CC1` [Example 574, 3-Methyl-11-(4-methyl-piperazin-1-yl)-3-methyl-5H-dibenzo[b,e][1,4]diazepine] stands 84 °C (dec.); under `Cc1ccc2c(c1)Nc1ccccc1N=C2N1CCN[C@@H](CCc2ccccc2)C1` [Example 575, 3-Methyl-11-[(S)-3-phenethyl-piperazin-1-yl]-5H-dibenzo[b,e][1,4]diazepine], 64 to 80 °C.
Still for that read-out and setting: under `Cc1ccc2c(c1)Nc1ccccc1N=C2N1CCN(C)[C@@H](CCc2ccccc2)C1` [Example 576, 3-Methyl-11-[4-methyl-(S)-3-phenethyl-piperazin-1-yl]-5H-dibenzo[b,e][1,4]diazepine] stands 65 °C (dec.); under `Cc1ccc2c(c1)Nc1ccccc1N=C2N1CCN[C@@H](CCc2cccc(F)c2)C1` [Example 577, 11-{(S)-3-[2-(3-Fluoro-phenyl)-ethyl]-piperazin-1-yl}-3-methyl-5H-dibenzo[b,e][1,4]diazepine], 81 °C (dec.); under `Cc1ccc2c(c1)Nc1ccccc1N=C2N1CCN(C)[C@@H](CCc2cccc(F)c2)C1` [Example 578, 11-{(S)-3-[2-(3-Fluoro-phenyl)-ethyl]-4-methyl-piperazin-1-yl}-3-methyl-5H-dibenzo[b,e][1,4]diazepine], 63 °C (dec.).
The same measure, in the same setting: as for `Cc1ccc2c(c1)C(N1CCN(C)CC1)=Nc1ccccc1N2` [Example 579], the figure is 170 to 177 °C (dec.); as for `Cc1ccc2c(c1)C(N1CCN[C@@H](CCc3ccccc3)C1)=Nc1ccccc1N2` [Example 580, 2-Methyl-11-[(S)-3-phenethyl-piperazin-1-yl]-5H-dibenzo[b,e][1,4]diazepine], 67 °C (dec.); as for `Cc1ccc2c(c1)C(N1CCN(C)[C@@H](CCc3ccccc3)C1)=Nc1ccccc1N2` [Example 581, 2-Methyl-11-[4-methyl-(S)-3-phenethyl-piperazin-1-yl]-5H-dibenzo[b,e][1,4]diazepine], 65 °C (dec.).
With `Clc1ccc2c(c1)N=C(N1CCN[C@@H](Cc3ccccc3)C1)c1ccccc1N2` [Example 585, 11-(3-(S)-Benzyl-piperazin-1-yl)-8-chloro-5H-dibenzo[b,e][1,4]diazepine], the melting point lay in the range of 79 to 92 °C.
Still for that read-out and setting: as for `CN1CCN(C2=Nc3ccccc3Nc3ccc(C(F)(F)F)cc32)CC1` [Example 606, 11-(4-Methyl-piperazin-1-yl)-2-trifluoromethyl-5H-dibenzo[b,e][1,4]diazepine], the figure is 68 to 72 °C.

The target of a further series is T1, Dopamine D2 receptor (Homo sapiens, UniProt P14416).
T1 construct: purchased Receptor Biology (now owned by NEN) RBHD2CM
T1 sequence (P14416 1-414 isoform P14416-2): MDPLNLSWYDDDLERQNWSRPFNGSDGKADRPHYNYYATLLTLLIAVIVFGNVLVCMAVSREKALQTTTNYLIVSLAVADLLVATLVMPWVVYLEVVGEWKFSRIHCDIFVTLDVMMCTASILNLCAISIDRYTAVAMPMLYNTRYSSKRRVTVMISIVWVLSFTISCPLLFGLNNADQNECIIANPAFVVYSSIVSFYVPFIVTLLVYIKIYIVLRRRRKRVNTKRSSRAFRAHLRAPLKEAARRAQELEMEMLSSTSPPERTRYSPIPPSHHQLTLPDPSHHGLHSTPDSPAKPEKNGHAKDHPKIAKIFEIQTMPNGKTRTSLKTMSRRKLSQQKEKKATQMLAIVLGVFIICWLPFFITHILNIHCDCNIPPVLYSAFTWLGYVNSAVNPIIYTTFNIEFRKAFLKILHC
As to the kind of experiment: Dopamine D2 receptor binding assay ([125I]iodospiperone). Particulars: [125I]iodospiperone 0.1 nM, D2 receptor membranes, 2 hours at room temperature; read-out: Relative D2 Receptor Binding Affinity Ki. As to the method:
Serotonin 5-HT6 and Dopamine D2 Binding Assay Protocol
The assay buffers used are 50 mM Tris-HCl pH 7.4, 120 mM NaCl, 5 mM KCl, 5 mM MgCl2, 1 mM EDTA for the Dopamine D2s receptor binding assay. […] The membranes used are from Receptor Biology (now owned by NEN), Cat #RBHD2CM for the D2 receptor.
Compounds are obtained as 10 mM stocks in 100% DMSO. They are diluted to 1 mM in 100% DMSO by adding 180 μL DMSO to 20 μL of stock in 96 well plates using a multidrop. […] This is done using a TECAN robot.
The radioligand is diluted in assay buffer to provide 0.1 nM for the D2 assay. Each vial of membranes is diluted up to 92 mL in assay buffer. The final assay volume is 250 μL consisting of 210 μl of diluted membranes, 20 μL of compound or 10% DMSO for total binding, and 20 μL of diluted radioligand. The compounds are transferred from drug dilution plates into coming 96 well assay plates using a 96 well Multimek pipettor. Radioligand and membranes are added to assay plates using multidrop pipettors. Non-specific binding is determined in wells containing a final concentration of 5 μM haloperidol. The final drug concentration range in half logs is from 10 μM down to 0.1 nM.
After addition of drug, membrane, and ligand, the plates are incubated for 2 hours at room temperature. During this time 96 well Millipore filter plates (MAFBNOB50) are soaked for a least 30 minutes with 200 μL per well of 0.5% polyethyleneimine.
The 0.5% PEI is removed from filterplate wells using a TiterTek MAP aspirator and 200 μL of the incubation mixture is transferred from the incubation plate to the filterplate after mixing. This transfer is done using the 96 tip Mutimek pipettor. After transfer to the filterplate filterplates are extracted and ished twice with 220 μL per well of cold buffer on the MAP aspirator. The peel away bottoms are removed from the filterplates and 60 μL per well of microscint 20 scintillation fluid is added per well using a multidrop. Plates are placed into suitable holders and are left at room temperature for 3 hours and are counted for ^3H in either a Wallac Microbeta counter or on a Packard Topcount.
Take `Cc1cc2c(s1)Nc1ccccc1N=C2N1CCN[C@@H](Cc2cccc(Cl)c2)C1` [Example 87]: the Ki fell in the range of 10 to 100 nM.
Same read-out and setting: under `Cc1cc2c(s1)Nc1ccccc1N=C2N1CCN[C@@H](Cc2cc(F)cc(F)c2)C1` [Example 88] stands < 10 nM; under `Cc1cc2c(s1)Nc1ccccc1N=C2N1CCN(C)[C@@H](Cc2cccc(Cl)c2)C1` [Example 119], 10 to 100 nM.
Still for that read-out and setting: as for `Cc1cc2c(s1)Nc1ccccc1N=C2N1CCN[C@@H](CCc2ccc(F)cc2)C1` [Example 176, 10-((S)-3-(2-(4-Fluorophenyl)-ethyl)-piperazin-1-yl)-2-methyl-4H-3-thia-4,9-diaza-benzo[f]azulene dihydrochloride], the figure is 10 to 100 nM.
With `Cc1cc2c(s1)Nc1ccccc1N=C2N1CCN[C@@H](CCc2cccc(F)c2)C1` [Example 177, 10-((S)-3-(2-(3-Fluoro-phenyl)-ethyl)-piperazin-1-yl))-2-methyl-4H-3-thia-4,9-diaza-benzo[f]azulene dihydrochloride], the Ki lay within 10 to 100 nM.
Still for that read-out and setting: under `Cc1cc2c(s1)Nc1ccccc1N=C2N1CCN[C@@H](CCc2ccccc2F)C1` [Example 178, 10-((S)-3-(2-(2-Fluoro-phenyl)-ethyl)-piperazin-1-yl)-2-methyl-4H-3-thia-4,9-diaza-benzo[f]azulene dihydrochloride] stands 10 to 100 nM; under `COc1ccc(CC[C@H]2CN(C3=Nc4ccccc4Nc4sc(C)cc43)CCN2)cc1` [Example 179, 10-((S)-3-(2-(4-methoxy-phenyl)-ethyl)-piperazin-1-yl)-2-methyl-4H-3-thia-4,9-diaza-benzo[f]azulene dihydrochloride], < 10 nM.
Same read-out and setting: under `COc1cccc(CC[C@H]2CN(C3=Nc4ccccc4Nc4sc(C)cc43)CCN2)c1` [Example 180, 10-((S)-3-(2-(3-Methoxy-phenyl)-ethyl)-piperazin-1-yl)-2-methyl-4H-3-thia-4,9-diaza-benzo[f]azulene dihydrochloride] stands < 10 nM; under `COc1ccccc1CC[C@H]1CN(C2=Nc3ccccc3Nc3sc(C)cc32)CCN1` [Example 181, 10-((S)-3-(2-(2-Methoxy-phenyl)-ethyl)-piperazin-1-yl)-2-methyl-4H-3-thia-4,9-diaza-benzo[f]azulene dihydrochloride], 10 to 100 nM.
On the same count and under the same terms, as for `Cc1cc2c(s1)Nc1ccccc1N=C2N1CCN(C)[C@@H](CCc2ccc(F)cc2)C1` [Example 182, 10-((S)-3-(2-(4-Fluoro-phenyl)-ethyl]-4-methyl-piperazin-1-yl)-2-methyl-4H-3-thia-4,9-diaza-benzo[f]azulene dihydrochloride], the figure is 10 to 100 nM.
